In patent US20220024921A1, “1,3,4-OXADIAZOLONE COMPOUND AND PHARMACEUTICAL” (NIPPON SHINYAKU CO., LTD., priority 2018, published 2022):
Counter-ions that a name gives are not always drawn.

How the values were obtained:
[1] = molecular target: T1, PIM1 serine/threonine kinase (Homo sapiens, UniProt P11309); experiment: PIM1 serine/threonine kinase inhibitory effect; assay type: biochemical; settings: PIM1 serine/threonine kinase activity; ATP 40 μM; 30° C., 30 minutes
T1 construct: purchased Carna Bioscience, Inc
T1 sequence (P11309 whole entry): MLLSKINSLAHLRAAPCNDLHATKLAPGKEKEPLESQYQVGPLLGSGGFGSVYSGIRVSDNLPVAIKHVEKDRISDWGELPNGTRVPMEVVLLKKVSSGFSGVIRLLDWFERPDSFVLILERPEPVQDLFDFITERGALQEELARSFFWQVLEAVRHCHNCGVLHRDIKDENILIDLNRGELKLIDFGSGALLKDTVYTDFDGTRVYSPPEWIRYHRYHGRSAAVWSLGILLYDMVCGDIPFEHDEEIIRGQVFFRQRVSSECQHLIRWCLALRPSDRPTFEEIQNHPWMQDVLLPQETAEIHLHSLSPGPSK
Procedure: Each test substance was prepared to 10 mM with dimethylsulfoxide (DMSO), and further diluted with DMSO so as to have concentrations of 1000, 300, 100, 30, 10, 3, 1, 0.3, 0.1, 0.03, 0.01, and 0.001 μM. Moreover, each dilution was further diluted 33.3-fold with an assay buffer to prepare a test substance solution. The composition of the assay buffer was 50 mM HEPES (pH 7.0), 0.02% NaN3, 0.01% Bovine Serum Albumin, 0.1 mM Orthovanadate, 1 mM Dithiothreitol, and 5 mM MgCl2.
5 μL of each test substance solution was added to 384-well plates (n=2), and then 2.5 μL of a substrate solution (substrate 3-biotin (Cisbio Bioassays SAS), final concentration in the reaction solution: 0.5 μM) and 2.5 μL of an ATP solution (in the cases of PIM1, 2, 3, the final concentrations in the reaction solutions were 40, 2, and 10 μM, respectively) were added, 5 μL of each of PIM1, 2, 3 serine/threonine kinase solutions (Carna Bioscience, Inc., the final concentrations in the reaction solutions were 0.15, 1.6, and 0.25 μg/ml, respectively) was finally added, and the mixture was reacted at 30° C. for 30 minutes. The test substance concentrations in the reaction solutions are 10000, 3000, 1000, 300, 100, 30, 10, 3, 1, 0.3, 0.1, and 0.01 nM.
Thereafter, 15 μL of each detection solution (62.5 nM Streptavidin-XL665 (Cisbio Bioassays SAS), […] STK antibody-Cryptate (Cisbio Bioassays SAS), 50 mM HEPES (pH 7.0), 0.8 M KF, 0.1% Bovine Serum Albumin, 20 mM ethylenediaminetetraacetic acid) was added to each well. After stirring, the mixture was reacted at 30° C. for 1 hour. Absorbance (OD620, OD665) at 620 and 665 nm was measured with a microplate reader (SpectraMax M5e, Molecular Devices, LLC).
Non-linear regression analysis was performed by an SAS system (SAS Institute Inc.) using the ratio (OD665/OD620) of the measured absorbance to calculate a test substance concentration (IC50) that inhibits PIM1 serine/threonine kinase activity by 50%.

[2] = molecular target: PIM1 transgenic cells (Ba/F3) (Homo sapiens, UniProt P11309); experiment: Proliferation inhibitory effect on PIM1 transgenic cells; assay type: cell-based, mouse; settings: proliferation inhibition, 72 hours, Cell Counting Kit-8, read-out: PIM1 IC50
PIM1 transgenic cells (Ba/F3), sequence (P11309 whole entry, stated change not applied): as the sequence (P11309 whole entry) above
Description: Human PIM1, 2, and 3 genes were inserted into the multi-cloning sites of retrovirus expression vectors pMYs-IRES-GFP, respectively, to prepare gene transfer vectors. Then, each gene transfer vector was introduced into packaging cells PLAT-E derived from a human fetal kidney cell line in the logarithmic growth phase, using a transfection reagent (FuGENE6, Promega Corporation). Since the culture supernatant of PLAT-E after gene transfer contained virus particles for gene transfer, the culture supernatant was collected and used as a medium for gene transfer. The medium for gene transfer was added to a plate coated with RetroNectin, and the plate was incubated to attach the virus particles to the plate. Then, a mouse pro-B cell line Ba/F3 in the logarithmic growth phase was seeded on the plate and infected with the virus to prepare PIM1, 2, or 3 transgenic cells that proliferate in a PIM 1, 2, or 3-dependent manner. The expression of PIM1, 2, or 3 protein in each cell was confirmed by Western blotting.
Each test substance was prepared to 10 mM with dimethylsulfoxide (DMSO), and diluted with DMSO so as to have concentrations of 3000, 1000, 300, 100, 30, 10, 3, and 1 μM. Moreover, each dilution was further diluted 10-fold with distilled water to prepare a test substance solution.
PIM1, 2, 3-expressing cells were seeded on a 96-well plate, and each test substance solution prepared the next day was added such that final concentrations were 10000, 3000, 1000, 300, 100, 30, 10, 3, and 1 nM. 72 hours after the addition, 10 μL of Cell Counting Kit-8 (DOJINDO LABORATORIES) was added to each well. After incubation for 1 to 4 hours, absorbance OD450 at 450 nm was measured. In addition, absorption OD650 at 650 nm as a reference wavelength was measured.
OD450-OD650 for each condition was calculated, and then the inhibition rates when OD450-OD650 of negative control (DMSO only) and OD450-OD650 of Blank (without cells) were set to 0% and 100%, respectively, were calculated. Then, non-linear regression analysis was performed for logarithmic dose and inhibition rate using a two-parameter logistic model to estimate IC50 values.

Structure (SMILES) | IC50 [1] | GI50 [2]
C[C@H](Nc1cc(-c2n[nH]c(=O)o2)ccc1C(F)(F)F)C12C3C4C1C1C2C3C41N (stereo partly drawn) [Example 186, 5-[3-({(1S)-1-[(2S,3R)-4-aminocuban-1-yl]ethyl}amino)-4-(trifluoromethyl)phenyl]-1,3,4-oxadiazol-2(3H)-one hydrochloride] | 0.011 µM | 2.3 µM
COc1c(F)cc(-c2n[nH]c(=O)o2)cc1N[C@@H](C)[C@H]1CC[C@H](N)CC1 [Example 167, 5-[3-({(1S)-1-[(1r,4S)-4-aminocyclohexyl]ethyl}amino)-5-fluoro-4-methoxyphenyl]-1,3,4-oxadiazol-2(3H)-one hydrochloride] | 0.0031 µM | 0.094 µM
CC(C)Oc1c(Cl)cc(-c2n[nH]c(=O)o2)cc1N[C@@H](C)C1CCNCC1 [Example 103, 5-(3-chloro-5-{[(1S)-1-(piperidin-4-yl)ethyl]amino}-4-[(propan-2-yl)oxy]phenyl)-1,3,4-oxadiazol-2(3H)-one hydrochloride] | 0.005 µM | 0.12 µM
Cc1cc(-c2n[nH]c(=O)o2)cc(N[C@@H](C)C2CCNCC2)c1Cl [Example 84, 5-(4-chloro-3-methyl-5-{[(1S)-1-(piperidin-4-yl)ethyl]amino}phenyl)-1,3,4-oxadiazol-2(3H)-one dihydrochloride] | 0.0011 µM | 0.036 µM
C[C@H](Nc1cc(-c2n[nH]c(=O)o2)cc(F)c1OC(F)(F)F)[C@H]1CC[C@H](N)CC1 [Example 170, 5-[3-({(1S)-1-[(1r,4S)-4-aminocyclohexyl]ethyl}amino)-5-fluoro-4-(trifluoromethoxy)phenyl]-1,3,4-oxadiazol-2(3H)-one hydrochloride] | 0.0018 µM | 0.017 µM
C[C@H](Nc1cc(-c2n[nH]c(=O)o2)cc(C(F)(F)F)c1Cl)[C@H]1C[C@@H](N)C1 [Example 183, 5-[3-({(1S)-1-[(1s,3R)-3-aminocyclobutyl]ethyl}amino)-4-chloro-5-(trifluoromethyl)phenyl]-1,3,4-oxadiazol-2(3H)-one hydrochloride] | 0.0018 µM | 0.045 µM
C[C@H](Nc1cc(-c2n[nH]c(=O)o2)ccc1C(F)(F)F)[C@H]1C[C@@H](NCC2CC2)C1 [Example 196, 5-[3-{[(1S)-1-{(1s,3R)-3-[(cyclopropylmethyl)amino]cyclobutyl}ethyl]amino}-4-(trifluoromethyl)phenyl]-1,3,4-oxadiazol-2(3H)-one hydrochloride] | 0.0092 µM | 0.25 µM
O=c1[nH]nc(-c2ccc(C(F)(F)F)c(N3CCC4(CCNCC4)CC3)c2)o1 [Example 15, 5-[3-(3,9-diazaspiro[5.5]undecan-3-yl)-4-(trifluoromethyl)phenyl]-1,3,4-oxadiazol-2(3H)-one hydrochloride] | 0.015 µM | 0.6 µM
C[C@H](Nc1cc(-c2n[nH]c(=O)o2)cc(S(F)(F)(F)(F)F)c1)C1CCNCC1 [Example 107, 5-[3-(pentafluoro-λ^6-sulfanyl)-5-{[(1S)-1-(piperidin-4-yl)ethyl]amino}phenyl]-1,3,4-oxadiazol-2(3H)-one hydrochloride] | 0.025 µM | 6.5 µM
C[C@H](Nc1cc(-c2n[nH]c(=O)o2)ccc1Br)[C@H]1CC[C@H](N)CC1 [Example 154, 5-[3-({(1S)-1-[(1r,4S)-4-aminocyclohexyl]ethyl}amino)-4-bromophenyl]-1,3,4-oxadiazol-2(3H)-one hydrochloride] | 0.0024 µM | 0.035 µM
O=c1[nH]nc(-c2ccc(C(F)(F)F)c(N[C@H](C3CCNCC3)C(F)(F)F)c2)o1 [Example 146, 5-[4-(trifluoromethyl)-3-{[(1R)-2,2,2-trifluoro-1-(piperidin-4-yl)ethyl]amino}phenyl]-1,3,4-oxadiazol-2(3H)-one hydrochloride] | 0.012 µM | 0.089 µM
CC[C@H](Nc1cc(-c2n[nH]c(=O)o2)cc(F)c1Cl)C1CCNCC1 [Example 139, 5-(4-chloro-3-fluoro-5-{[(1S)-1-(piperidin-4-yl)propyl]amino}phenyl)-1,3,4-oxadiazol-2(3H)-one hydrochloride] | 0.0026 µM | 0.08 µM

The next lines start with the values.

IC50 [1] | GI50 [2] | Structure (SMILES)
0.0006 µM | 0.061 µM | N[C@H]1CC[C@H](CNc2cc(-c3n[nH]c(=O)o3)cc(F)c2Cl)CC1 [Example 86, 5-[3-({[(1r,4r)-4-aminocyclohexyl]methyl}amino)-4-chloro-5-fluorophenyl]-1,3,4-oxadiazol-2(3H)-one hydrochloride]
0.003 µM | 0.071 µM | CN[C@H]1CC[C@H](CNc2cc(-c3n[nH]c(=O)o3)ccc2C(F)(F)F)CC1 [Example 131, 5-[3-({[(1r,4r)-4-(methylamino)cyclohexyl]methyl}amino)-4-(trifluoromethyl)phenyl]-1,3,4-oxadiazol-2(3H)-one hydrochloride]
0.0087 µM | 0.56 µM | C[C@H](Nc1cc(-c2n[nH]c(=O)o2)ccc1C(F)(F)F)[C@H]1CC[C@H](NCCO)CC1 [Example 201, 5-[3-{[(1S)-1-{(1r,4S)-4-[(2-hydroxyethyl)amino]cyclohexyl}ethyl]amino}-4-(trifluoromethyl)phenyl]-1,3,4-oxadiazol-2(3H)-one hydrochloride]
0.0035 µM | 0.045 µM | C[C@@H]1C[C@H]([C@H](C)Nc2cc(-c3n[nH]c(=O)o3)cc(F)c2OC(F)F)CCN1 [Example 216, 5-[4-(difluoromethoxy)-3-fluoro-5-({(1S)-1-[(2R,4R)-2-methylpiperidin-4-yl]ethyl}amino)phenyl]-1,3,4-oxadiazol-2(3H)-one]
0.0017 µM | 0.032 µM | C[C@H](Nc1cc(-c2n[nH]c(=O)o2)cc(F)c1C(F)(F)F)C1(C)CCNCC1 [Example 206, 5-[3-fluoro-5-{[(1S)-1-(4-methylpiperidin-4-yl)ethyl]amino}-4-(trifluoromethyl)phenyl]-1,3,4-oxadiazol-2(3H)-one]
0.019 µM | 0.27 µM | O=c1[nH]nc(-c2ccc(C(F)(F)F)c(NCC3(F)CCNCC3)c2)o1 [Example 108, 5-[3-{[(4-fluoropiperidin-4-yl)methyl]amino}-4-(trifluoromethyl)phenyl]-1,3,4-oxadiazol-2(3H)-one hydrochloride]
0.0057 µM | 0.41 µM | N[C@H]1CC[C@H](Nc2cc(-c3n[nH]c(=O)o3)ccc2Cl)CC1 [Example 32, 5-(3-{[(1r,4r)-4-aminocyclohexyl]amino}-4-chlorophenyl)-1,3,4-oxadiazol-2(3H)-one]
0.001 µM | 0.075 µM | C[C@H](Nc1cc(-c2n[nH]c(=O)o2)cc(F)c1Br)C1CCNCC1 [Example 83, 5-(4-bromo-3-fluoro-5-{[(1S)-1-(piperidin-4-yl)ethyl]amino}phenyl)-1,3,4-oxadiazol-2(3H)-one hydrochloride]
0.02 µM | 0.55 µM | N[C@H]1CC[C@H](Nc2cc(-c3n[nH]c(=O)o3)ccc2OC(F)(F)F)CC1 [Example 38, 5-[3-{[(1r,4r)-4-aminocyclohexyl]amino}-4-(trifluoromethoxy)phenyl]-1,3,4-oxadiazol-2(3H)-one hydrochloride]
